Laboratory results from publication PMC10867212, “Comparative pharmacokinetics of polymyxin B in critically ill elderly patients with extensively drug-resistant gram-negative bacteria infections” (Frontiers in Pharmacology, 2024).
Where two headings read alike, the source gives them in different places. Where a SMILES comes first, the peptide text is derived from it. Bridges are numbered along the chain shown (N, C = ends). [ ]: non-standard residue; d: D form. The star is where a group is joined. X1 = CC[C@H](C)CCCCC(=O)*; Dab = NCC[C@H](N)C(=O)O

What was measured:
[1] = ref Zavascki et al., 2008; Yun et al., 2015; cited from earlier work
Description: PMB has been reported to accumulate in large quantities in the kidney, much more than in other organs, such as the heart, lungs, and brain. […] Considering that PMB is poorly recovered in urine (less than 1%) ([Zavascki et al., 2008]; [Yun et al., 2015]), it may be filtered from the glomerulus and reabsorbed in the proximal tubule.

[2] = Steady-state plasma pharmacokinetics of intravenous polymyxin B in critically ill patients (non-compartmental analysis); type: in vivo, human; details: for Normalized AUCss, 0–24 h: AUC adjusted to a daily dose of 1 mg/kg of TBW; for Cmin / Css, avg (average steady-state plasma concentration) / Cmax / AUC(0-t): HPLC-MS/MS; for Tmax: iv infusion of at least 1 h; for half-life: read-out: Half-time time (converted)
Description: All adult patients admitted to the participating intensive care unit (ICU) in a teaching hospital between December 2021 and July 2023 were consecutively screened for entry into this prospective observational study. The ICU served a mixed population of medical, surgical, trauma, and neurologic patients. All critically ill patients (≥18 years) were eligible if they received intravenous PMB for more than 3 days (sulfate; PMB injection, Shanghai First Biochemical Pharmaceutical Co., Ltd., China) for the treatment of documented XDR-GNB infections. Exclusion criteria were 1) patients with anuria or who received blood purification therapy or extracorporeal membrane oxygenation during PMB treatment; 2) pregnant women. Informed written consent was obtained from each patient or a legal representative of the family. This study protocol was approved by the human ethics committees in Shandong Provincial Hospital Affiliated to Shandong First Medical University (protocol SWYX: No. 2021-356) and was carried out in accordance with the Declaration of Helsinki (2000) of the World Medical Association.
Patients were enrolled on the first day of intravenous PMB administration. This study continued for 28 days or until discharge from the hospital or death. According to the patient’s age, the enrolled patients were divided into two groups: the elderly group (≥65 years) and the young group (<65 years).
PMB was administrated intravenously with a loading dose of 2.0–2.5 mg/kg and maintenance doses of 1.25–1.5 mg/kg every 12 h, with at least 1 h infusion time. Calculation of both the loading dose and maintenance dose was based on the total body weight (TBW) of the patient. No dose adjustment was performed in patients with renal insufficiency and renal replacement therapy. Concurrent prescription of other potential nephrotoxic drugs, such as vancomycin, aminoglycoside, etc., was avoided as much as possible at any time during PMB treatment in our study. The initiation of PMB treatment as well as the concomitant antibiotics and their duration were at the discretion of the ICU physicians.
For steady-state PK assessment, blood samples were obtained after at least six doses of PMB. In each patient, six to eight blood samples (3 mL) were collected immediately 10 min before the infusion and 30 min and 1, 2, 3, 6, 8, and 12 h after the beginning of infusion in ethylenediaminetetraacetic acid anticoagulant tubes. Blood samples were immediately centrifuged at 3500 g for 10 min, and the plasma samples were collected and stored at −80°C until analysis. The PMB plasma concentrations were quantified by measuring both polymyxin B1 and B2 using validated high-performance liquid chromatography-tandem mass spectrometry.
The primary outcome was steady-state PMB exposure as reflected by AUCss, 0–24 h. Non-compartmental PK analysis was conducted using Phoenix WinNonlin software 8.3 (Certara, United States). The clinical variables were summarized as means with standard deviation for approximately normally distributed continuous variables or medians with interquartile range for non-normally distributed continuous variables and as frequencies and percentages for categorical variables. The normality of all data sets was determined using the Kolmogorov-Smirnov test. Categorical variables were analyzed by the chi-square or Fisher exact test, while continuous variables were analyzed by the two-tailed non-paired Student’s t-test or Mann-Whitney U test. […] All the analyses were performed with the use of the SPSS for Windows statistical program (version 22.0; IBM Corp., Armonk, NY).

[3] = all patients (n = 23), iv 1.25–1.5 mg/kg q12h, steady state, mean ± SD, SD
[4] = elderly group ≥65 years (n = 17), iv 1.25–1.5 mg/kg q12h, steady state, mean ± SD, SD
[5] = young group <65 years (n = 6), iv 1.25–1.5 mg/kg q12h, steady state, mean ± SD, SD

**Q.** With CC[C@H](C)CCCCC(=O)N[C@@H](CCN)C(=O)N[C@H](C(=O)N[C@@H](CCN)C(=O)N[C@H]1CCNC(=O)[C@H]([C@@H](C)O)NC(=O)[C@H](CCN)NC(=O)[C@H](CCN)NC(=O)[C@H](CC(C)C)NC(=O)[C@@H](Cc2ccccc2)NC(=O)[C@H](CCN)NC1=O)[C@@H](C)O [polymyxin B] (X1-[Dab]T[Dab][Dab][Dab][dF]L[Dab][Dab]T; lactam 4-C) as the molecule, how does the Recovery in urine [1] read?
**A.** less than 1%

**Q.** And the “Normalized AUCss, 0–24 h” value ([2]; all patients (n = 23), steady state, mean ± SD, SD)?
**A.** 52.31 ± 28.65 mg·h/L

**Q.** And the Cmin [2, 3]?
**A.** 2990 ± 1990 ng/mL

**Q.** What about the “Css, avg (average steady-state plasma concentration)” value (“Css, avg” for short) [2, 3] of the same molecule?
**A.** 4200 ± 2230 ng/mL

**Q.** What about the “Normalized AUCss, 0–24 h” value ([2]; elderly group ≥65 years (n = 17), steady state, mean ± SD, SD) of the same molecule?
**A.** 55.23 ± 28.51 mg·h/L

**Q.** And the Cmax [2, 4]?
**A.** 9230 ± 2840 ng/mL

**Q.** What about the Cmin [2, 4] of the same molecule?
**A.** 3110 ± 1790 ng/mL

**Q.** What about the “Css, avg” value [2, 4] of the same molecule?
**A.** 4320 ± 2110 ng/mL

**Q.** What about the “Clearance per TBW” value ([2]; elderly group ≥65 years (n = 17), per total body weight, iv, steady state, non-compartmental, mean ± SD, SD) of the same molecule?
**A.** 0.6 ± 0.4 mL/min/kg

**Q.** What about the AUC(0-t) ([2]; human, elderly group ≥65 years (n = 17), iv 1.25–1.5 mg/kg q12h after loading dose, steady state (≥6 doses), non-compartmental, mean ± SD, SD, read-out: AUCss, 0–12 h) of the same molecule?
**A.** 51800 ± 25300 ng·h/mL

**Q.** What about the Cmax ([2]; human, iv, all patients (n = 23), iv 1.25–1.5 mg/kg q12h, steady state, mean ± SD, SD, read-out: Cmax) of the same molecule?
**A.** 9410 ± 3120 ng/mL

**Q.** And the AUC(0-t) ([2]; human, iv, all patients (n = 23), iv 1.25–1.5 mg/kg q12h, steady state, non-compartmental, mean ± SD, SD, read-out: AUCss, 0–24 h)?
**A.** 71900 ± 41800 ng·h/mL

**Q.** And the AUC(0-t) ([2]; human, iv, all patients (n = 23), iv 1.25–1.5 mg/kg q12h after loading dose, steady state (≥6 doses), non-compartmental, mean ± SD, SD, read-out: AUCss, 0–12 h)?
**A.** 50300 ± 27000 ng·h/mL

**Q.** What about the Tmax ([2]; human, iv, all patients (n = 23), steady state, mean ± SD, SD) of the same molecule?
**A.** 54.6 ± 29.4 min

**Q.** And the clearance ([2]; human, iv, all patients (n = 23), iv, steady state, non-compartmental, mean ± SD, SD, read-out: Clearance (converted))?
**A.** 41.5 mL/min

**Q.** And the Vd ([2]; human, iv, all patients (n = 23), iv, steady state, non-compartmental, mean ± SD, SD, read-out: Volume of distribution)?
**A.** 24.7 ± 11.7 L

**Q.** And the clearance ([2]; human, iv, all patients (n = 23), per total body weight, iv, steady state, non-compartmental, mean ± SD, SD, read-out: Clearance per TBW (converted))?
**A.** 0.6 mL/min/kg

**Q.** What about the Vd ([2]; human, iv, all patients (n = 23), per total body weight, iv, steady state, non-compartmental, mean ± SD, SD, read-out: Volume of distribution per TBW) of the same molecule?
**A.** 0.37 ± 0.17 L/kg

**Q.** And the AUC(0-t) ([2]; human, iv, elderly group ≥65 years (n = 17), iv 1.25–1.5 mg/kg q12h, steady state, non-compartmental, mean ± SD, SD, read-out: AUCss, 0–24 h)?
**A.** 76200 ± 41800 ng·h/mL

**Q.** What about the Tmax ([2]; human, iv, elderly group ≥65 years (n = 17), steady state, mean ± SD, SD) of the same molecule?
**A.** 56.5 ± 33.6 min

**Q.** What about the clearance ([2]; human, iv, elderly group ≥65 years (n = 17), iv, steady state, non-compartmental, mean ± SD, SD, read-out: Clearance (converted)) of the same molecule?
**A.** 39.5 mL/min

**Q.** And the half-life ([2]; human, iv, elderly group ≥65 years (n = 17), iv, steady state, non-compartmental, mean ± SD, SD)?
**A.** 673 ± 323 min

**Q.** And the Vd ([2]; human, iv, elderly group ≥65 years (n = 17), iv, steady state, non-compartmental, mean ± SD, SD, read-out: Volume of distribution)?
**A.** 25.5 ± 12.9 L

**Q.** And the Vd ([2]; human, iv, elderly group ≥65 years (n = 17), per total body weight, iv, steady state, non-compartmental, mean ± SD, SD, read-out: Volume of distribution per TBW)?
**A.** 0.4 ± 0.19 L/kg

**Q.** What about the Cmax ([2]; human, iv, young group <65 years (n = 6), iv 1.25–1.5 mg/kg q12h, steady state, mean ± SD, SD, read-out: Cmax) of the same molecule?
**A.** 9890 ± 4070 ng/mL

**Q.** And the AUC(0-t) ([2]; human, iv, young group <65 years (n = 6), iv 1.25–1.5 mg/kg q12h, steady state, non-compartmental, mean ± SD, SD, read-out: AUCss, 0–24 h)?
**A.** 59500 ± 43100 ng·h/mL

**Q.** And the Tmax ([2]; human, iv, young group <65 years (n = 6), steady state, mean ± SD, SD)?
**A.** 49.8 ± 15.6 min

**Q.** What about the clearance ([2]; human, iv, young group <65 years (n = 6), iv, steady state, non-compartmental, mean ± SD, SD, read-out: Clearance (converted)) of the same molecule?
**A.** 47.5 mL/min

**Q.** What about the half-life ([2]; human, iv, young group <65 years (n = 6), iv, steady state, non-compartmental, mean ± SD, SD) of the same molecule?
**A.** 394 ± 69.6 min

**Q.** And the Vd ([2]; human, iv, young group <65 years (n = 6), iv, steady state, non-compartmental, mean ± SD, SD, read-out: Volume of distribution)?
**A.** 22.3 ± 7.6 L

**Q.** And the clearance ([2]; human, iv, young group <65 years (n = 6), per total body weight, iv, steady state, non-compartmental, mean ± SD, SD, read-out: Clearance per TBW (converted))?
**A.** 0.617 mL/min/kg

**Q.** What about the Vd ([2]; human, iv, young group <65 years (n = 6), per total body weight, iv, steady state, non-compartmental, mean ± SD, SD, read-out: Volume of distribution per TBW) of the same molecule?
**A.** 0.29 ± 0.09 L/kg

**Q.** What about the “AUCss, 0–24 h (range)” value ([2]; range over the critically ill patients (n = 23), steady state) of the same molecule?
**A.** 11300 to 151280 ng·h/mL

**Q.** And the “Normalized AUCss, 0–24 h” value ([2]; young group <65 years (n = 6), steady state, mean ± SD, SD)?
**A.** 44.03 ± 30.00 mg·h/L

**Q.** And the Cmin [2, 5]?
**A.** 2650 ± 2640 ng/mL

**Q.** And the “Css, avg” value [2, 5]?
**A.** 3880 ± 2750 ng/mL
